Tests used:
[1] = in vivo; cited from earlier work
[2] = test system: non-insulin dependent type II diabetes patients; test: Clinical test II; type: in vivo, human; details: for Body weight: week 0: 61.4 ± 10.21, in kg; for Serum neutral fat: week 0: 199.6 ± 88.29; for number of patients, Feeling of weariness Absent: before medication 0 of 25; for number of patients, Large amount of urine excretion Absent: before medication 0 of 30; for number of patients, Feeling of fatigue Absent: before medication 1 of 15; for number of patients, Throat dry Absent: before medication 1 of 30; for number of patients, Pain in the calf of leg Absent: before medication 4 of 16; for number of patients, Pain in the calf of leg Present: before medication 12 of 16; for number of patients, Feeling of fatigue Present: before medication 14 of 15; for number of patients, Feeling of weariness Present: before medication 25 of 25; for number of patients, Throat dry Present: before medication 29 of 30; for number of patients, Large amount of urine excretion Present: before medication 30 of 30
Experimental: On the other hand, Clinical test II was performed in a group of 79 participants from non-insulin dependent diabetic patients.
79 non-insulin dependent type II diabetes patients whose blood sugar is well-controlled under dietary therapy (all were mongoloid Japanese) participated in Clinical test II. They were forbidden to use sulfonyl urea and biguanide agent which is a therapeutic agent for type II diabetes, and a fibrate series medicament, nicotinic acid, and probucol which is a serum fat decreasing agent; however use of an antihypertensive agent is not particularly prohibited. They participated on a voluntary basis after they signed informed consent for clinical test participation, which was proposed by a medical institution based on the Helsinki declaration. The participants consisted of 26 males and 53 females. An average age at the sign-up time was 58±9.9 years old (average value±standard deviation), ranging from 37 to 81 years old. The body weight of patients was divided by standard body weight obtained from the standard body-weight table issued by Meiji life Insurance Company. This index was 1.24±0.154 (average value±standard deviation) at the sign-up time, meaning that there are many obese persons. After 12 weeks, the body weight index decreased to 1.18±0.137(average value±standard deviation).
The number of patients having normal blood pressure was 58 (of them, 31 patients were taking an antihypertensive agent).

[3] = 30 cases with diabetic complications

COc1c(Cl)c(C)c(C=O)c(O)c1C/C=C(C)/C=C/[C@@]1(C)[C@H](C)CCC(=O)[C@@H]1C [4-O-methylascochlorin]
distribution of the isotope-labeled compound [1]: widely and specifically distributed in the adipose tissue as well as in the adrenal gland | synthesis of steroid hormones (glucocorticoid+mineral corticoid) of adrenal cortex [1]: regulates synthesis of steroid hormones | Fasting blood sugar, change vs week 0 ([2]; 6 mg/kg, week 4): −9.1% (n = 69) | Serum neutral fat, change vs week 0 ([2]; 6 mg/kg, week 4): −15.2% (n = 62) | Total serum cholesterol, change vs week 0 ([2]; 6 mg/kg, week 4): −14.3% (n = 60) | Body weight ([2]; 6 mg/kg, week 4): 61.4 ± 9.63 | Fasting blood sugar ([2]; 6 mg/kg, week 4, week 0: 162 ± 50.68): 146.1 ± 41.06 | Serum neutral fat ([2]; 6 mg/kg, week 4): 173.5 ± 71.25 | Total serum cholesterol ([2]; 6 mg/kg, week 4, week 0: 265.3 ± 69.75): 238.7 ± 51.33 | Fasting blood sugar, change vs week 0 ([2]; 6 mg/kg, week 8): −8.9% (n = 74) | Serum neutral fat, change vs week 0 ([2]; 6 mg/kg, week 8): −22.7% (n = 59) | Total serum cholesterol, change vs week 0 ([2]; 6 mg/kg, week 8): −18.6% (n = 61) | Body weight ([2]; 6 mg/kg, week 8): 60.7 ± 8.88 | Fasting blood sugar ([2]; 6 mg/kg, week 8, week 0: 162 ± 50.68): 147.9 ± 46.94 | Serum neutral fat ([2]; 6 mg/kg, week 8): 162.3 ± 65.89 | Total serum cholesterol ([2]; 6 mg/kg, week 8, week 0: 265.3 ± 69.75): 228.0 ± 43.65 | Fasting blood sugar, change vs week 0 ([2]; 6 mg/kg, week 12): −10.8% (n = 71) | Serum neutral fat, change vs week 0 ([2]; 6 mg/kg, week 12): −21.8% (n = 69) | Total serum cholesterol, change vs week 0 ([2]; 6 mg/kg, week 12): −19.7% (n = 69) | Body weight ([2]; 6 mg/kg, week 12): 60.3 ± 9.07 | Fasting blood sugar ([2]; 6 mg/kg, week 12, week 0: 162 ± 50.68): 142.2 ± 44.03 | Serum neutral fat ([2]; 6 mg/kg, week 12): 158.8 ± 73.28 | Total serum cholesterol ([2]; 6 mg/kg, week 12, week 0: 265.3 ± 69.75): 220.04 ± 46.17 | number of patients, Feeling of weariness Absent ([2]; 4th week): 10 | number of patients, Large amount of urine excretion Absent ([2]; 4th week): 16 | number of patients, Feeling of fatigue Absent ([2]; 4th week): 5 | number of patients, Throat dry Absent ([2]; 4th week): 16 | number of patients, Pain in the calf of leg Absent ([2]; 4th week): 9 | number of patients, Pain in the calf of leg Present ([2]; 4th week): 7 | number of patients, Feeling of fatigue Present ([2]; 4th week): 10 | number of patients, Feeling of weariness Present ([2]; 4th week): 15 | number of patients, Throat dry Present ([2]; 4th week): 14 | number of patients, Large amount of urine excretion Present ([2]; 4th week): 14 | symptoms associated with diabetic nephropathy such as throat dry and excessive urination ([2]; 5 excluded cases of type II diabetic patients having 10-20 year's disease history): disappeared from all patients | number of patients, Feeling of weariness Absent ([2]; 8th week): 19 | number of patients, Large amount of urine excretion Absent ([2]; 8th week): 22 | number of patients, Feeling of fatigue Absent ([2]; 8th week): 13 | number of patients, Throat dry Absent ([2]; 8th week): 23 | number of patients, Pain in the calf of leg Absent ([2]; 8th week): 10 | number of patients, Pain in the calf of leg Present ([2]; 8th week): 6 | number of patients, Feeling of fatigue Present ([2]; 8th week): 2 | number of patients, Feeling of weariness Present ([2]; 8th week): 6 | number of patients, Throat dry Present ([2]; 8th week): 7 | number of patients, Large amount of urine excretion Present ([2]; 8th week): 8 | decrease of body weight compared to before medication ([2]; 12-week medication): 0.9 kg | number of patients, Feeling of weariness Absent ([2]; 12th week): 24 | number of patients, Large amount of urine excretion Absent ([2]; 12th week): 29 | number of patients, Feeling of fatigue Absent ([2]; 12th week): 15 | number of patients, Throat dry Absent ([2]; 12th week): 28 | number of patients, Pain in the calf of leg Absent ([2]; 12th week): 14 | number of patients, Pain in the calf of leg Present ([2]; 12th week): 2 | number of patients, Feeling of fatigue Present ([2]; 12th week): 0 | number of patients, Feeling of weariness Present ([2]; 12th week): 1 | number of patients, Throat dry Present ([2]; 12th week): 2 | number of patients, Large amount of urine excretion Present ([2]; 12th week): 1 | feeling of fatigue, feeling of weariness, pain in the calf of leg (diabetic neuropathy) [2, 3]: improved these symptoms with the passage of time | throat dry and excessive urination (symptoms of diabetic nephropathy) [2, 3]: significantly improved | abnormality in the serum biological test, hematocyte test, and urine test ([2]; 79 patients, 12-week medication): did not bring any abnormality | side effect ([2]; 79 patients, 12-week medication, 6 mg/kg, transient, disappeared within a week): Two cases of light eruption | Fasting blood sugar, change vs before medication ([2]; High blood sugar group FBS > 130 mg/dl, 4th week): −11.3% (n = 45) | Fasting blood sugar ([2]; High blood sugar group FBS > 130 mg/dl, 4th week, before medication 187.6 ± 40.39): 167.3 ± 34.50 mg/dL | Fasting blood sugar, change vs before medication ([2]; High blood sugar group FBS > 130 mg/dl, 8th week): −11.8% (n = 49) | Fasting blood sugar ([2]; High blood sugar group FBS > 130 mg/dl, 8th week, before medication 187.6 ± 40.39): 167.8 ± 44.82 mg/dL | Fasting blood sugar, change vs before medication ([2]; High blood sugar group FBS > 130 mg/dl, 12th week): −13.8% (n = 46) | Fasting blood sugar ([2]; High blood sugar group FBS > 130 mg/dl, 12th week, before medication 187.6 ± 40.39): 161.7 ± 41.79 mg/dL | Total serum cholesterol, change vs before medication ([2]; High cholesterol group 300-200 mg/dl, 4th week): −11.8% (n = 26) | Total serum cholesterol ([2]; High cholesterol group 300-200 mg/dl, 4th week, before medication 267.6 ± 23.66): 240.8 ± 38.92 mg/dL | Total serum cholesterol, change vs before medication ([2]; High cholesterol group 300-200 mg/dl, 8th week): −13.9% (n = 27) | Total serum cholesterol ([2]; High cholesterol group 300-200 mg/dl, 8th week, before medication 267.6 ± 23.66): 232.4 ± 36.01 mg/dL | Total serum cholesterol, change vs before medication ([2]; High cholesterol group 300-200 mg/dl, 12th week): −17.0% (n = 30) | Total serum cholesterol ([2]; High cholesterol group 300-200 mg/dl, 12th week, before medication 267.6 ± 23.66): 227.2 ± 45.36 mg/dL | Fasting blood sugar, change vs before medication ([2]; Normal blood sugar group FBS < 130 mg/dl, 4th week): ns (n = 24) | Fasting blood sugar ([2]; Normal blood sugar group FBS < 130 mg/dl, 4th week, before medication 108.8 ± 15.10): 106.4 ± 13.48 mg/dL

Source: patent US20050153870A1, “Medicinal composition for diagnosis, prevention, or therapy of multiple risk factor syndrome” (priority 2002, published 2005)
